Results from ChEMBL document CHEMBL1201862, “PubChem BioAssay data set” (2004).
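Briefly, cells in 96-well plates were exposed to five compound concentrations for 48 h, and endpoints were estimated by linear interpolation. GI50 is the concentration that inhibits growth by half.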 The source made the active and inactive calls. Rule as the data show it: active = GI50 up to about 1.1 µM and inactive = higher.

Legend:
Test in all cases: inhibition of tumour cell growth, NCI panel, 48 h
A549 = system: A549
DU-145 = system: DU-145
HCT-116 = system: HCT-116
HCT-15 = system: HCT-15
HT-29 = system: HT-29
K562 = system: K562
MDA-MB-435 = system: MDA-MB-435
MOLT-4 = system: MOLT-4
NCI-H522 = system: NCI-H522
NCI/ADR-RES = system: NCI/ADR-RES
OVCAR-3 = system: OVCAR-3
OVCAR-4 = system: OVCAR-4
OVCAR-5 = system: OVCAR-5
OVCAR-8 = system: OVCAR-8
PC-3 = system: PC-3
RPMI-8226 = system: RPMI-8226
SF-295 = system: SF-295
SF-539 = system: SF-539
SK-MEL-28 = system: SK-MEL-28
SNB-75 = system: SNB-75

| Structure (SMILES) | GI50 (A549) | GI50 (DU-145) | GI50 (HCT-116) | GI50 (HCT-15) | GI50 (HT-29) | GI50 (K562) | GI50 (MDA-MB-435) | GI50 (MOLT-4) | GI50 (NCI-H522) | GI50 (NCI/ADR-RES) | GI50 (OVCAR-3) | GI50 (OVCAR-4) | GI50 (OVCAR-5) | GI50 (OVCAR-8) | GI50 (PC-3) | GI50 (RPMI-8226) | GI50 (SF-295) | GI50 (SF-539) | GI50 (SK-MEL-28) | GI50 (SNB-75) |
| --- | --- | --- | --- | --- | --- | --- | --- | --- | --- | --- | --- | --- | --- | --- | --- | --- | --- | --- | --- | --- |
| COc1ccc(-c2cc(=O)c3c(O)c(OC)c(O)cc3o2)cc1O | 6.4 µM (inactive) | 7.64 µM (inactive) | 3.48 µM (inactive) | 1.9 µM | 16 µM (inactive) | 0.679 µM (active) | 0.582 µM (active) | 3.19 µM (inactive) | 1.97 µM (inactive) | 2.69 µM (inactive) | 9.04 µM (inactive) | 50.5 µM (inactive) | 32.8 µM (inactive) | 9.55 µM (inactive) | 10 µM (inactive) | 2.45 µM (inactive) | 2.83 µM (inactive) | 2.69 µM (inactive) | 22.5 µM (inactive) | 3.65 µM (inactive) |
| C=CCN1C(=O)CNC1=S | > 100 µM (inactive) | > 100 µM (inactive) | > 100 µM (inactive) | > 100 µM | > 100 µM (inactive) | 40.6 µM (inactive) | > 100 µM (inactive) | > 100 µM (inactive) | > 100 µM (inactive) | > 100 µM (inactive) | > 100 µM (inactive) | > 100 µM (inactive) | > 100 µM (inactive) | > 100 µM (inactive) | > 100 µM (inactive) | > 100 µM (inactive) | > 100 µM (inactive) | > 100 µM (inactive) | > 100 µM (inactive) | > 100 µM (inactive) |
| COc1cc(C2SCC(=O)N2NC(=O)c2ccc(NC(C)=O)cc2OC)ccc1O (stereo not given) | 54.2 µM (inactive) | 21 µM (inactive) | > 100 µM (inactive) | > 100 µM | > 100 µM (inactive) | > 100 µM (inactive) | > 100 µM (inactive) | > 100 µM (inactive) | > 100 µM (inactive) | 96.4 µM (inactive) | > 100 µM (inactive) | > 100 µM (inactive) | 23.1 µM (inactive) | 25.2 µM (inactive) | 37.4 µM (inactive) | 0.883 µM (active) | 20.5 µM (inactive) | 0.729 µM (active) | > 100 µM (inactive) | 23.7 µM (inactive) |
| CCO[C@@]1(COCc2ccccc2)OC(=O)C[C@@H]1N1C(=O)OC[C@@H]1c1ccccc1 | > 100 µM (inactive) | > 100 µM (inactive) | > 100 µM (inactive) | > 100 µM | > 100 µM (inactive) | > 100 µM (inactive) | > 100 µM (inactive) | 58.9 µM (inactive) | 84.3 µM (inactive) | > 100 µM (inactive) | 41.5 µM (inactive) | > 100 µM (inactive) | > 100 µM (inactive) | > 100 µM (inactive) | > 100 µM (inactive) | > 100 µM (inactive) | > 100 µM (inactive) | > 100 µM (inactive) | > 100 µM (inactive) | > 100 µM (inactive) |
| CCON=C1C(C)(C)C(C)(C)C(C)(C)C1(C)C | > 100 µM (inactive) | > 100 µM (inactive) | > 100 µM (inactive) | > 100 µM | > 100 µM (inactive) | > 100 µM (inactive) | > 100 µM (inactive) | > 100 µM (inactive) | > 100 µM (inactive) | > 100 µM (inactive) | > 100 µM (inactive) | > 100 µM (inactive) | > 100 µM (inactive) | > 100 µM (inactive) | > 100 µM (inactive) | > 100 µM (inactive) | > 100 µM (inactive) | > 100 µM (inactive) | > 100 µM (inactive) | > 100 µM (inactive) |
| Cn1cnc([N+](=O)[O-])c1[Se]c1nc(N)nc2c1ncn2C1OC(CO)C(O)C1O (stereo not given) | > 100 µM (inactive) | > 100 µM (inactive) | > 100 µM (inactive) | > 100 µM | > 100 µM (inactive) | > 100 µM (inactive) | > 100 µM (inactive) | > 100 µM (inactive) | > 100 µM (inactive) | > 100 µM (inactive) | > 100 µM (inactive) | > 100 µM (inactive) | > 100 µM (inactive) | > 100 µM (inactive) | > 100 µM (inactive) | > 100 µM (inactive) | > 100 µM (inactive) | > 100 µM (inactive) | > 100 µM (inactive) | > 100 µM (inactive) |
| NNC(=O)CC(=O)Nc1ccccc1Cl | > 100 µM (inactive) | > 100 µM (inactive) | > 100 µM (inactive) | > 100 µM | > 100 µM (inactive) | > 100 µM (inactive) | > 100 µM (inactive) | > 100 µM (inactive) | > 100 µM (inactive) | > 100 µM (inactive) | > 100 µM (inactive) | > 100 µM (inactive) | > 100 µM (inactive) | > 100 µM (inactive) | > 100 µM (inactive) | > 100 µM (inactive) | > 100 µM (inactive) | > 100 µM (inactive) | > 100 µM (inactive) | > 100 µM (inactive) |
| CN(Cc1cnc2nc(N)nc(N)c2n1)c1ccc(C(=O)NCCS(=O)(=O)O)cc1 | > 100 µM (inactive) | > 100 µM (inactive) | 91.6 µM (inactive) | > 100 µM | > 100 µM (inactive) | > 100 µM (inactive) | > 100 µM (inactive) | > 100 µM (inactive) | > 100 µM (inactive) | > 100 µM (inactive) | > 100 µM (inactive) | > 100 µM (inactive) | > 100 µM (inactive) | > 100 µM (inactive) | > 100 µM (inactive) | > 100 µM (inactive) | > 100 µM (inactive) | > 100 µM (inactive) | > 100 µM (inactive) | > 100 µM (inactive) |
| COC(=O)NCCc1n[nH]c2c1C(=O)C=C(OC)C2=O | 46.7 µM (inactive) | 52.6 µM (inactive) | 18.6 µM (inactive) | 28.4 µM | 42.6 µM (inactive) | 17.5 µM (inactive) | 14.6 µM (inactive) | 19.9 µM (inactive) | 23.9 µM (inactive) | > 100 µM (inactive) | 17.9 µM (inactive) | 19.6 µM (inactive) | 20.7 µM (inactive) | 22 µM (inactive) | 34.9 µM (inactive) | 24.5 µM (inactive) | 18.2 µM (inactive) | 19.4 µM (inactive) | 20.1 µM (inactive) | 19.2 µM (inactive) |
| CC(=O)c1csc2c1C(=O)c1scc(C(C)=O)c1C2=O | 1.97 µM (inactive) | 1.87 µM (inactive) | 2.15 µM (inactive) | 1.62 µM | 2.28 µM (inactive) | 0.74 µM (active) | 0.188 µM (active) | 0.347 µM (active) | 0.52 µM (active) | 1.61 µM (inactive) | 0.231 µM (active) | 0.587 µM (active) | 1.98 µM (inactive) | 1.54 µM (inactive) | 2.84 µM (inactive) | 0.944 µM (active) | 1.66 µM (inactive) | 1.82 µM (inactive) | 1.97 µM (inactive) | 2.03 µM (inactive) |
| CN(C)Cc1cc(C(F)(F)F)ccc1C(O)(c1ccccc1)c1ccccc1 | 15 µM (inactive) | 26.7 µM (inactive) | 13 µM (inactive) | 14.7 µM | 5.05 µM (inactive) | 6.9 µM (inactive) | 18.8 µM (inactive) | 15.7 µM (inactive) | 15.6 µM (inactive) | 15.2 µM (inactive) | 27.8 µM (inactive) | 16.4 µM (inactive) | 14.4 µM (inactive) | 17.9 µM (inactive) | 14.1 µM (inactive) | 5.51 µM (inactive) | 17.9 µM (inactive) | 17 µM (inactive) | 14.9 µM (inactive) | 8.55 µM (inactive) |
| CCN(CC)CC1CCCCN1CC(=O)N1c2ccccc2NC(=O)c2ccccc21 (stereo not given) | > 100 µM (inactive) | > 100 µM (inactive) | > 100 µM (inactive) | > 100 µM | > 100 µM (inactive) | 79.3 µM (inactive) | > 100 µM (inactive) | > 100 µM (inactive) | > 100 µM (inactive) | > 100 µM (inactive) | > 100 µM (inactive) | > 100 µM (inactive) | > 100 µM (inactive) | > 100 µM (inactive) | > 100 µM (inactive) | > 100 µM (inactive) | > 100 µM (inactive) | > 100 µM (inactive) | > 100 µM (inactive) | 13.9 µM (inactive) |
| C=CCN1C(=O)/C(=C/c2ccccc2)NC1=S | 88.9 µM (inactive) | > 100 µM (inactive) | > 100 µM (inactive) | > 100 µM | > 100 µM (inactive) | 84.5 µM (inactive) | > 100 µM (inactive) | 61.7 µM (inactive) | 94.6 µM (inactive) | > 100 µM (inactive) | > 100 µM (inactive) | > 100 µM (inactive) | > 100 µM (inactive) | > 100 µM (inactive) | > 100 µM (inactive) | 48.5 µM (inactive) | > 100 µM (inactive) | > 100 µM (inactive) | > 100 µM (inactive) | > 100 µM (inactive) |
| CC(CO)C1=CC(C#CCOCc2ccccc2)N(C(=O)Oc2ccccc2)c2ccccc21 (stereo not given) | 9.98 µM (inactive) | 57.5 µM (inactive) | 14.8 µM (inactive) | 5.04 µM | 18.6 µM (inactive) | 8.26 µM (inactive) | 15.5 µM (inactive) | 4.63 µM (inactive) | 7.73 µM (inactive) | 8.89 µM (inactive) | 9.35 µM (inactive) | 3.48 µM (inactive) | 64.1 µM (inactive) | 30.5 µM (inactive) | 14.4 µM (inactive) | 13.1 µM (inactive) | 7.24 µM (inactive) | 41 µM (inactive) | 54.5 µM (inactive) | 22.9 µM (inactive) |
